Three compounds from ChEMBL document CHEMBL1201862, “PubChem BioAssay data set” (2004) can be followed below.

Active and inactive are the calls of the source.

The target of assay [1] is T1, Replicative DNA helicase DnaB (Mycobacterium tuberculosis, UniProt P9WMR3).
T1 sequence (P9WMR3 whole entry): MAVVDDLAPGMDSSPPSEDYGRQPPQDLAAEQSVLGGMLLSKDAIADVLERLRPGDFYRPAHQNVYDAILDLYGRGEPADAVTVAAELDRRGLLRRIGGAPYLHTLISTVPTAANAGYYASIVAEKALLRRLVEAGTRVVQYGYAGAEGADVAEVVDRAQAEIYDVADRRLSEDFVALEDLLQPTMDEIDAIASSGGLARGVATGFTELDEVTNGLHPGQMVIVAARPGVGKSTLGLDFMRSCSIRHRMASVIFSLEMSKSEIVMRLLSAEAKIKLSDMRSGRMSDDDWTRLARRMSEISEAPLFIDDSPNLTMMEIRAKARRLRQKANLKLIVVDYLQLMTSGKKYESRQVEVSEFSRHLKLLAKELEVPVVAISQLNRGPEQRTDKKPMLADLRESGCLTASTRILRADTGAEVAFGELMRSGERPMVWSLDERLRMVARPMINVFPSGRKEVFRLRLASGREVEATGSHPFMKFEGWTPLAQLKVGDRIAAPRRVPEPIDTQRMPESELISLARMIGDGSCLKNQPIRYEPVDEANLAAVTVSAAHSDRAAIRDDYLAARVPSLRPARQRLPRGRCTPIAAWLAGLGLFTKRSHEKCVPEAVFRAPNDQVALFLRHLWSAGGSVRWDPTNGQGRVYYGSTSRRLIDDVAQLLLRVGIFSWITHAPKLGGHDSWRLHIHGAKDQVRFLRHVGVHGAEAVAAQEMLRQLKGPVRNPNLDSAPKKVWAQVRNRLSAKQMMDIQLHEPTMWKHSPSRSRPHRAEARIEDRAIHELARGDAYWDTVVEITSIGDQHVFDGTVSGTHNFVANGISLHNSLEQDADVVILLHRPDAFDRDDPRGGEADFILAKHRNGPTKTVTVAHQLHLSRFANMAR
The experiment in a line: DnaB intein splicing inhibitors, dose response, biochemical, cell-free fluorescence (AID 449749). Type of assay: functional.

The target of assay [2] is T2, RNA-binding protein pos-1 (Caenorhabditis elegans, UniProt G5EF15).
T2 sequence (G5EF15 whole entry): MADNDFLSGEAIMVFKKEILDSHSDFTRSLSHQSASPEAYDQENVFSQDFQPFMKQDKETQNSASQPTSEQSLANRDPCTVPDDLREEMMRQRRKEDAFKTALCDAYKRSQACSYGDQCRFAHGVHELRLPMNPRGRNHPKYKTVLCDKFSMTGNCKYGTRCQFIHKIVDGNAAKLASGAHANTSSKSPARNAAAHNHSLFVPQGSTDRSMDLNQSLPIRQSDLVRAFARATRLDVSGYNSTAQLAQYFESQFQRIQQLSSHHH
Put plainly: inhibitors of POS-1/mex-3 RNA binding, dose response, biochemical, fluorescence polarization (AID 1964).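 Note: purified POS-1 fused to maltose binding protein made in E. coli; potency of compounds blocking POS-1 binding to fluorescent RNA.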

The target of assay [3] is Albumin (Bos taurus, UniProt P02769). Put plainly: Counterscreen for inhibitors of T-cell receptor (TCR)-CD3 interaction: Fluorescence-based biochemical high throughput dose response assay to identify inhibitors of T-cell receptor (TCR)-CD3 interaction using a TAMRA-labeled BSA probe. The format is functional. For orientation: The purpose of a counterscreen is to sort out artefacts and off-target activity.

Assay [4] in a line: NIH-3T3 fibroblast cytotoxicity, dose response, cytotoxicity control, cell-based, fluorescence, Alamar Blue, secondary assay (AID 2327).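 Note: NIH-3T3 mouse fibroblasts cultured with fluconazole at 8 µg/mL.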 The format is functional. In general terms: Alamar Blue is a resazurin reagent that responds to reducing activity.
Assay [5] concerns the target T3, Zinc finger protein mex-5 (Caenorhabditis elegans, UniProt Q9XUB2).
T3 sequence (Q9XUB2 whole entry): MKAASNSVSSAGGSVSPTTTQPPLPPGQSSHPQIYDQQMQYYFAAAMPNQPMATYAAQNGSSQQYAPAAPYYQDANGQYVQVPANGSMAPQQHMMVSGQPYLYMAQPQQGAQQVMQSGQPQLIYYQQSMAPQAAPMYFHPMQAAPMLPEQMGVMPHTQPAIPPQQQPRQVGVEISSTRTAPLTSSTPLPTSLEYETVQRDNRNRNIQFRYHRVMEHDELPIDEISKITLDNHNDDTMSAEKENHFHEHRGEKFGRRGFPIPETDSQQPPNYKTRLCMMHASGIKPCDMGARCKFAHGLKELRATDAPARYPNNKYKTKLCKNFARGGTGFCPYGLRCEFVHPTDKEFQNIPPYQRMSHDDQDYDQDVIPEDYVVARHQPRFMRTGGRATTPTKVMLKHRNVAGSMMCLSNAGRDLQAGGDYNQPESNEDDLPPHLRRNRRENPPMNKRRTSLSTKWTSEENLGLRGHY
The experiment in a line: MEX-5/TCR-2 RNA interaction inhibitors, dose response, biochemical, C. elegans, fluorescence polarization (AID 1960). On the technique in general: Fluorescence polarisation rises when a labelled molecule tumbles more slowly, as on binding a larger partner.

Assay [6] can be described thus: C. albicans growth with fluconazole, confirmation, fluorescence, retest (AID 2467). Type of assay: functional, cell-based.
Assay [7] deals with T4, Protein RecA (Mycobacterium tuberculosis, UniProt P9WHJ3).
T4 sequence (P9WHJ3 whole entry): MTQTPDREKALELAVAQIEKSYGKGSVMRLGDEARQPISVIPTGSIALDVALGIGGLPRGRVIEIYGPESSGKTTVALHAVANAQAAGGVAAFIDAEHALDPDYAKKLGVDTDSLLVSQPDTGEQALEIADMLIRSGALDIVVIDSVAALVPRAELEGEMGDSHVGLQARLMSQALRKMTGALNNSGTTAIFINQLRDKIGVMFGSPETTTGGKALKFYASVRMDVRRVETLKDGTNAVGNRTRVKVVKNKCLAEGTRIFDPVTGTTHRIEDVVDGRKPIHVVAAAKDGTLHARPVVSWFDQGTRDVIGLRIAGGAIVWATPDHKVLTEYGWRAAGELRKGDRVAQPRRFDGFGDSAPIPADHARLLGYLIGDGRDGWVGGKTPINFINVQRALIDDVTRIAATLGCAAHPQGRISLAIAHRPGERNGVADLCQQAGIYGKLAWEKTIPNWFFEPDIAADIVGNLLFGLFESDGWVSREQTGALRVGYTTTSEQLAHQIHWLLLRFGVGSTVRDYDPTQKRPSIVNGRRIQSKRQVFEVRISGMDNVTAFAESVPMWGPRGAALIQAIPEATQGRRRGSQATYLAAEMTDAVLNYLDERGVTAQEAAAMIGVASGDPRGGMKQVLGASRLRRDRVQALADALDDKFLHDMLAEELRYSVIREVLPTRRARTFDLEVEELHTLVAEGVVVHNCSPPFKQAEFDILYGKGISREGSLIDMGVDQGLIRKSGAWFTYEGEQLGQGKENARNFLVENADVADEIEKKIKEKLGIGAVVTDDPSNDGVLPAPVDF
Put plainly: Fluorescence Cell-Free Homogeneous Dose Retest to Identify Inhibitors of RecA-Intein Splicing Activity. [Related pubchem assays (depositor defined):AID2097, AID2223, AID489010, AID492950]. The format is functional.

The nature of assay [8]: human group III sPLA2 inhibitors, dose response, biochemical, QFRET, IC50 (AID 743457).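 Note: green fluorescence rise as the enzyme cleaves BODIPY PC-A2 in liposomes; potency for inhibition of the enzyme.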
The nature of assay [9]: A549 cell cytotoxicity, dose response, cytotoxicity control, plate reader, cherry-pick, antagonist series (AID 743412). Type of assay: functional, cell-based.
Assay [10] concerns the target Luciferin 4-monooxygenase (Photinus pyralis, UniProt P08659). The experiment in a line: firefly luciferase enzyme inhibitors, dose response, biochemical, luminescence (AID 1891).
Assay [11] in a line: LGR2 antagonists, dose response, cell-based, HEK293, CRE-luciferase reporter, cherry pick, set 2 (AID 743343).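 Note: transfected cells were stimulated with diluted bursicon conditioned medium after compound addition.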 Type of assay: functional.
Assay [12] has as its target T5, Protein skinhead-1 (Caenorhabditis elegans, UniProt P34707).
T5 sequence (P34707 whole entry): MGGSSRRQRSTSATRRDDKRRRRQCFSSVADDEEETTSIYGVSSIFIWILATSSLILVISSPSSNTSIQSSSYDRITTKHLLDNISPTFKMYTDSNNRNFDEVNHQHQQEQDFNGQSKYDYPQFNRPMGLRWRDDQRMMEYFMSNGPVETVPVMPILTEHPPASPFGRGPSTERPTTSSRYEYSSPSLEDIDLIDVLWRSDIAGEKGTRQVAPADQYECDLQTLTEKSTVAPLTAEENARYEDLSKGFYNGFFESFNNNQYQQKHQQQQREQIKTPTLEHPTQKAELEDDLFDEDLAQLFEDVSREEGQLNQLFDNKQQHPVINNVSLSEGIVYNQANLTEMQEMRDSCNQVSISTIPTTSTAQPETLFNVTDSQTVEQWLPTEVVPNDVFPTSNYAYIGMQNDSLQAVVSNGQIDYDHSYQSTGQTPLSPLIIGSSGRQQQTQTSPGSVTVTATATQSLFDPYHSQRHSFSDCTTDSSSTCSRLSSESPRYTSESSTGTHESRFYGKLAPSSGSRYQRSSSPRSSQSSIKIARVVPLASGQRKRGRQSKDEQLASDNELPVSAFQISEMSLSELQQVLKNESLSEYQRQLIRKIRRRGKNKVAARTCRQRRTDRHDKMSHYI
The format is functional.

Assay [13] is described as follows: HEK293 cell cytotoxicity, dose response, cytotoxicity control, plate reader, cherry-picked samples (AID 743446). Type of assay: functional, cell-based.
Assay [14] is described as follows: HepG2 cell cytotoxicity, dose response, cytotoxicity control, plate reader, cherry-pick, antagonist series (AID 743416). The format is functional, cell-based.
Assay [15] can be described thus: MC4R antagonists, dose response, counter-screen for LGR2 antagonist project, cell-based, plate reader, cherry pick (AID 743444).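 Note: transfected HEK 293 cells stimulated with alpha-MSH peptide; potency of inhibitors of the alpha-MSH evoked signal.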 Type of assay: functional.
A short description of assay [16]: Luminescence Cell-Based Dose Confirmation HTS to Identify Inhibitors of Platelet Dense Granule Release. [Related pubchem assays: 1663 (Primary HTS), 1678 (Summary of Project)]. The format is functional.
The nature of assay [17]: cytotoxicity toward DRD oncogenic fibroblasts, dose response, cell-based, non-viral oncogenic, luminescence (AID 1934). The format is functional. The note with it: Homo sapiens.
Assay [18] concerns BJ. Put plainly: cytotoxicity toward BJ-TERT-LT-ST fibroblasts, dose response, cell-based, RAS-independent, luminescence (AID 1935).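 Note: BJ fibroblasts immortalized with TERT plus LT and ST oncogenes.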 The settings on record: Homo sapiens. The format is functional.
In assay [19] the test system is BJ. The experiment in a line: cytotoxicity toward BJ-TERT fibroblasts, dose response, cell-based, RAS-independent, luminescence (AID 1933). Type of assay: functional. The note with it: Homo sapiens.
Assay [20] has as its system BJ. Put plainly: cells. The format is functional, cell-based. The note with it: Homo sapiens.

Chain of Luciferin 4-monooxygenase (P08659 whole entry): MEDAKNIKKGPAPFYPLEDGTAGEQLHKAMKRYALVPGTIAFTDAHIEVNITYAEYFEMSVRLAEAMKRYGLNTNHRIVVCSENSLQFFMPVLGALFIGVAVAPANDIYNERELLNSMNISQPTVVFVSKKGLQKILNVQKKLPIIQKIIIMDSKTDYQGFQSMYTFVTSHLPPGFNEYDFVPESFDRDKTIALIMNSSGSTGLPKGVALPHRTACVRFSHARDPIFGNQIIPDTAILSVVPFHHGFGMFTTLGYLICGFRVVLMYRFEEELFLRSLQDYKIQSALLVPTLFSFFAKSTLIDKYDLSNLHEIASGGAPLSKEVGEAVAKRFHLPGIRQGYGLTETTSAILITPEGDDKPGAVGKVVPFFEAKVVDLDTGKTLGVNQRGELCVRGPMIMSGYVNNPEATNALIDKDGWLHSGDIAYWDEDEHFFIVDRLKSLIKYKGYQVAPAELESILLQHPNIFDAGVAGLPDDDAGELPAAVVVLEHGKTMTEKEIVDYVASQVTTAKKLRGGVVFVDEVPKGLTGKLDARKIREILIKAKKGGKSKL
Chain of Albumin (P02769 whole entry): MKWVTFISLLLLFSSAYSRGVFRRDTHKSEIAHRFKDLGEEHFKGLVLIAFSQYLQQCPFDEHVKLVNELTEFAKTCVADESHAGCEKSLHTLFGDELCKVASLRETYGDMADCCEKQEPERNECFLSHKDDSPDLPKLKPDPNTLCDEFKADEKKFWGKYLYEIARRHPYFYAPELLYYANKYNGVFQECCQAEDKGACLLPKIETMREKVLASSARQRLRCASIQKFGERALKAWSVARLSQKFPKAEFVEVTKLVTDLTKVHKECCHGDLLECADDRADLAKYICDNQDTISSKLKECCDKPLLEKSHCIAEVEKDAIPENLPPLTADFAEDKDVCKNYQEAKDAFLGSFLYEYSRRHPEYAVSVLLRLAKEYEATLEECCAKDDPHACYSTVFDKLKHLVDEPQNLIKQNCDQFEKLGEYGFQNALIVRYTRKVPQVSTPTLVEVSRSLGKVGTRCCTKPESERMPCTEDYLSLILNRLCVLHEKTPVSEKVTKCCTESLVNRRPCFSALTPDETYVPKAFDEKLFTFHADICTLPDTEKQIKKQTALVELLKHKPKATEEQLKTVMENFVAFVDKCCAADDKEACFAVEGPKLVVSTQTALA

In general, AC50 refers to the midpoint of the concentration-response curve, whichever way the signal moves. Usually EC50 stands for the concentration that produces a half-maximal response. Broadly, the IC50 is the concentration needed to halve the response being measured. As to `O=C(NNC(=O)c1ccc2ccccc2c1O)c1ccccc1Cl`, the AC50 in assay [1] is 30 µM (active). For the same compound, the EC50 in assay [2] was 15.4 µM (inconclusive); in assay [4], > 160 µM (inactive); in assay [5], 2.31 µM (inconclusive); in assay [6] it was > 38 µM (not active); in assay [7] it was > 380 µM (inactive). Also, the IC50 was > 94.1 µM (inactive) in assay [3] and > 122 µM (inactive) in assay [8].

Take `CCOc1ccc2nc(NC(=O)c3ccco3)sc2c1`: the AC50 in assay [9] was 35.4 µM (active); in [11] it was 8.15 µM (active); in [13] it was 20.6 µM (active); in assay [14], 32.6 µM (active); in assay [15], 7.74 µM (active). The EC50 is 0.383 µM (active) in assay [10] and 3.13 µM (active) in assay [16]. Also, the IC50 in assay [12] was > 100 µM (inactive).

Take `O=C(Nc1ccc(-c2nc3ccccc3[nH]2)cc1)C1CCCO1` (configuration not stated): the AC50 was 14.1 µM (active) in [9]; 6.14 µM (active) in assay [11]; 21 µM (active) in assay [13]; 24.7 µM (active) in assay [14]; 6.98 µM (active) in assay [15]. Also, the concentration for a half-maximal effect (EC50) in [17] is 9.19 µM (inconclusive); in [10] it was 1.02 µM (active); in assay [18] it was 22.9 µM (active); in assay [19] it was 8.39 µM (inconclusive); in assay [20], 16.8 µM (inconclusive); in assay [16], 1.69 µM (active).
